Tests used:
[1] = Evaluation of solubility in various organic solvents at 25° C.; format: physicochemical; details: concentration giving a stable solution
Description: The case in which dissolution occurred at more than 20 mass % is indicated by 20<while the case of less than 0.5 mass % is indicated by 0.5>.

[2] = Measurement of UV absorption spectra of methanol solutions; format: physicochemical; details: 1×10^−5 mol/liter; for Maximum absorption (nm), first absorption peak / Maximum absorption (nm), second absorption peak: 200 nm to 500 nm; for Maximum absorption (nm), first absorption peak / Absorbance at first absorption peak: (short wavelength); for Maximum absorption (nm), second absorption peak / Absorbance at second absorption peak: long wavelength
Method: Solutions of the compounds listed in Table 2 among the compounds yielded in the above described examples and the comparative compounds 1-3 represented by the formulae described below in methanol with 1×10^−5 mol/liter were prepared to measure the UV absorption spectra of the solutions at 200 nm to 500 nm.

| SMILES | Solubility in cyclohexanone [1] [mass %] | Solubility in propylene glycol monomethyl ether acetate [1] [mass %] | Solubility in γ-butyrolactone [1] | Maximum absorption (nm), first absorption peak [2] [nm] | Maximum absorption (nm), second absorption peak [2] [nm] | Absorbance at first absorption peak [2] | Absorbance at second absorption peak [2] |
| --- | --- | --- | --- | --- | --- | --- | --- |
| CCCCSc1ccc2c3c(cccc13)C(=O)N(OS(=O)(=O)CC13CCC(CC1=O)C3(C)C)C2=O (stereo not shown) [Compound S-28] | 14.0 | 2.8 | 17.8 mass % |  |  |  |  |
| CC1(C)C2CCC1(CS(=O)(=O)ON1C(=O)c3cccc4cccc(c34)C1=O)C(=O)C2 (stereo not shown) [compound 1] | 6.1 | 1.1 | 12.6 mass % | 231 | 335 | 0.413 | 0.133 |
| Cc1ccc(S(=O)(=O)ON2C(=O)c3cccc4cccc(c34)C2=O)cc1 [compound 3] | 1.0 | < 0.5 | 1.9 mass % | 229 | 335 | 0.513 | 0.117 |
| CCCCCCCCSc1ccc2c3c(cccc13)C(=O)N(OS(=O)(=O)CC13CCC(CC1=O)C3(C)C)C2=O (stereo not shown) [Compound S-29] | > 20 | 9.0 | 20< mass % | 210 | 400 | 0.299 | 0.158 |
| O=C1c2cccc3cccc(c23)C(=O)N1OS(=O)(=O)C(F)(F)F [Comparative compound 2] | 7.1 | 1.9 | 4.8 mass % | 226 | 336 | 0.389 | 0.103 |

From patent publication US8680268B2, “Sulfonic acid derivative compound and novel naphthalic acid derivative compound” (Adeka Corporation, priority 2010, dated 2014)
